Data reported in patent US20110152362A1, “METHODS OF TREATING EPILEPTOGENESIS AND EPILEPSY” (priority 2004, published 2011).

Tests used:
[1] = Blood levels in humans, oral administration of Test Compound for 7 days (toxicology studies); assay type: in vivo, human; settings: for Cmax at 7 days: blood; for Cmax at 7 days / AUC (0-24): human
Source text: In toxicology studies in humans, oral administration of Test Compound at various doses for 7 days produced the following C max's and AUC (0-24): […]

[2] = Blood levels in rats, oral administration of Test Compound for 8 days (toxicology studies); assay type: in vivo; settings: rat; for Cmax at 8 days: blood
Source text: In toxicology studies in rats, oral administration of Test Compound (TC) for 8 days produced the following C max and AUC: […]

[3] = tested on: rats subjected to Li-pilo induced SE; assay: Example 1: quantification of cell densities in hippocampus, thalamus and cortex after Li-pilo SE; assay type: in vivo, rat
Experimental: The effects of increasing doses of the Test Compound were studied on 3 groups of rats. The animals of the first group received 10 mg/kg of the test compound, i.p., 1 h after the onset of SE (pilo-TC10) while the animals of groups 2 and 3 received 30 and 60 mg/kg of the Test Compound (pilo-TC30 and pilo-TC60), respectively.
The control group received saline instead of pilocarpine and the Test Compound (saline-saline). […] Pilo-DZP received a second injection of 1 mg/kg DZP on the day of SE at about 10 h after the first one. Thereafter, Pilo-DZP and saline-saline rats received twice daily an equivalent volume of saline.
Quantification of cell densities was performed at 6 days after SE on 8 pilo-DZP, 8 pilo-TC10, 7 pilo-TC30, 7 pilo-TC60, and 6 saline-saline rats. […] Counts involved only cells larger than 10 μm, smaller ones being considered as glial cells.
For the comparison of the characteristics of SE in pilo-saline and pilo-test compound animals, a non-paired Student's t-test was used. The comparison between the number of rats seizing in both groups was performed by means of a Chi square test. For neuronal damage, statistical analysis between groups was performed using ANOVA followed by a Fisher's test for multiple comparisons using the Statview software (Fisher R A, 1946a, Statistical Methods for Research Workers (10th edition) Oliver & Boyd, Edinburgh; Fisher R A, 1946b, The Design of Experiments (4th edition) Oliver & Boyd, Edinburgh)

[4] = tested on: rats subjected to li-pilo SE; assay: Example 2: mortality over the first 48 h after Li-pilo SE; assay type: in vivo, rat; set-up: concentration or dose not given beside the values
[5] = tested on: rats subjected to li-pilo SE; assay: Example 2: quantification of cell densities 14 days after li-pilo SE;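 further: Thionine-stained 20 µm brain sections, neurons with cell bodies above 10 µm counted, value is the mean of 12 fields per structure from three adjacent sections, both sides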
Experimental: All rats received lithium chloride (3 meq/kg, i.p., Sigma, St Louis, Mo., U.S.A.) and about 20 h later, all animals received also methylscopolamine bromide (1 mg/kg, s.c., Sigma) that was administered to limit the peripheral effects of the convulsant. […] The effects of increasing doses of TC were studied in 5 groups of rats. […] The control group received vehicle instead of pilocarpine and TC.
For neuronal counting, animals were deeply anesthetized with 1.8 g/kg pentobarbital (Dolethal®, Vetoquinol, Lure, France). Brains were then removed and frozen. Serial 20 μm slices were cut in a cryostat, air-dried during several days before thionine staining. […] The grid of counting was placed on a well defined area of the cerebral structure of interest and counting was carried out with a microscopic enlargement of 200- or 400-fold defined for each single cerebral structure. Cell counts were performed twice on each side of three adjacent sections for each region by a single observer unaware of the animal's treatment. The number of cells obtained in the 12 counted fields in each cerebral structure was averaged. This procedure was used to minimize the potential errors that could result from double counting leading to overestimation of cell numbers. […] Counts involved only neurons with cell bodies larger than 10 μm. Cells with small cell bodies were considered as glial cells and were not counted.
For neuronal damage and epileptogenesis, statistical analysis between groups was performed by means of a one-way analysis of variance followed by a post-hoc Dunnett or Fisher test using the Statistica software.

[6] = pilo-TC30 (TC 30 mg/kg), 14 days after li-pilo SE

SMILES: NC(=O)OC[C@@H](O)c1ccccc1Cl [TC]
- tolerability in humans ([1]; 750 mg twice a day (1500 mg/day)): easily tolerated
- Cmax at 7 days ([1]; oral 100 mg b.i.d. for 7 days): 3600 ng/mL
- Cmax at 7 days ([1]; oral 250 mg b.i.d. for 7 days): 8200 ng/mL
- Cmax at 7 days ([1]; oral 500 mg b.i.d. for 7 days): 17200 ng/mL
- Cmax at 7 days ([1]; oral 750 mg b.i.d. for 7 days): 28200 ng/mL
- AUC (0-24) ([1]; oral 100 mg b.i.d. for 7 days): 42.2 micrograms-hour/mL
- AUC (0-24) ([1]; oral 250 mg b.i.d. for 7 days): 102.3 micrograms-hour/mL
- AUC (0-24) ([1]; oral 500 mg b.i.d. for 7 days): 204.1 micrograms-hour/mL
- AUC (0-24) ([1]; oral 750 mg b.i.d. for 7 days): 322.7 micrograms-hour/mL
- Cmax at 8 days ([2]; oral 30 mg/kg/day for 8 days): 9330 ng/mL
- Cmax at 8 days ([2]; oral 100 mg/kg/day for 8 days): 20600 ng/mL
- Cmax at 8 days ([2]; oral 300 mg/kg/day for 8 days): 70300 ng/mL
- AUC ([2]; oral 30 mg/kg/day for 8 days): 97.32 micrograms-hour/mL
- AUC ([2]; oral 100 mg/kg/day for 8 days): 230.33 micrograms-hour/mL
- AUC ([2]; oral 300 mg/kg/day for 8 days): 525.95 micrograms-hour/mL
- protective effects at lowest dose tested in Example 1 ([3]; 10 mg/kg/day): minimal or no protective effects
- protection in CA3b ([3]; 60 mg/kg): significantly neuroprotective
- reduction of neuronal damage, lateral thalamic nucleus ([3]; 60 mg/kg dose): 65%
- reduction of neuronal damage, mediodorsal thalamic nucleus ([3]; 60 mg/kg dose): 42%
- neuroprotection compared to pilo-DZP rats, ventral entorhinal cortex layers III-IV ([3]; TC60 administration): 31%
- reduction of neuronal damage recorded in pilo-DZP rats, piriform cortex layer II ([3]; TC60 treatment): 41%
- reduction of neuronal damage recorded in pilo-DZP rats, piriform cortex layers III-IV ([3]; TC60 treatment): 44%
- worsening of cell loss compared with pilo-DZP rats, dorsal entorhinal cortex layers III-IV ([3]; pilo-TC10 rats): 28 % more damage
- worsening of cell loss compared with pilo-DZP rats, ventral entorhinal cortex layers III-IV ([3]; pilo-TC10 rats): 35 % more damage
- cell loss, CA1 pyramidal layer ([3]; pilo-TC30 animals): 35%
- cell loss, CA1 pyramidal layer ([3]; pilo-TC60 animals): 16%
- cell loss in the hilus of dentate gyrus ([3]; pilo-test compound animals (10, 30, 60 mg/kg)): 69-72%
- protection in the CA3a area ([3]; test compound 10, 30, 60 mg/kg): did not afford any protection
- mortality over the first 48 h after SE ([4]; TC30, group for cell counting at 14 days): 33%
- mortality over the first 48 h after SE ([4]; TC30, group for latency to SRS and late cell counting): 27%
- mortality over the first 48 h after SE ([4]; TC60, group for cell counting at 14 days): 8%
- mortality over the first 48 h after SE ([4]; TC60, group for latency to SRS and late cell counting): 0%
- mortality over the first 48 h after SE ([4]; TC90, group for cell counting at 14 days): 0%
- mortality over the first 48 h after SE ([4]; TC90, group for latency to SRS and late cell counting): 0%
- mortality over the first 48 h after SE ([4]; TC120, group for cell counting at 14 days): 33%
- mortality over the first 48 h after SE ([4]; TC120, group for latency to SRS and late cell counting): 0%
- protective effects at lowest dose tested in Example 2 ([5]; 30 mg/kg): some measurable protective effects
- neuronal drop out, layer II of the dorsal piriform cortex ([5]; TC 60 mg/kg, 14 days after SE): 25%
- damage remaining, ventral entorhinal cortex layer II ([5]; TC 90 mg/kg, 14 days after SE): 4%
- damage remaining, ventral entorhinal cortex layers III/IV ([5]; TC 90 mg/kg, 14 days after SE): 17%
- neuronal density in piriform cortex, % of control levels ([5]; TC 120 mg/kg, 14 days after SE): 78-96 % of control levels
- neurons surviving in entorhinal cortex, dorsal and ventral ([5]; TC 120 mg/kg, 14 days after SE): 85-94%
- cell loss (drop out) in the hilus of dentate gyrus ([5]; TC30, 60 and 90 groups (range also covers DZP), 14 days after SE): 61-66%
- cell loss, CA1 pyramidal cell layer ([5]; TC30, 60 or 90 rats, 14 days after SE): 36-47%
- cell loss, CA1 pyramidal cell layer ([5]; TC120 group, 14 days after SE): 12%
- neuronal loss in the hilus of dentate gyrus ([5]; TC120 group, 14 days after SE): 53%
- neuronal drop out in thalamic nuclei ([5]; TC120 rats, 14 days after SE): 4-19%
- number of neurons in all amygdala nuclei, % of the control level ([5]; highest dose, 120 mg/kg, 14 days after SE): 86-99 % of the control level
- number of neuronal cell bodies: Amygdala Basolateral [5, 6]: 27.3 ± 4.9**°
- number of neuronal cell bodies: Amygdala Medial, dorsal anterior [5, 6]: 46.8 ± 5.0
- number of neuronal cell bodies: Amygdala Medial, ventral posterior [5, 6]: 22.3 ± 1.8
- number of neuronal cell bodies: Cerebral cortex Entorhinal, layer II, dorsal [5, 6]: 23.4 ± 0.6
- number of neuronal cell bodies: Cerebral cortex Entorhinal, layer II, ventral [5, 6]: 22.7 ± 0.9
- number of neuronal cell bodies: Cerebral cortex Entorhinal, layer III/IV, dorsal [5, 6]: 22.3 ± 0.5
- number of neuronal cell bodies: Cerebral cortex Entorhinal, layer III/IV, ventral [5, 6]: 13.2 ± 1.9
- number of neuronal cell bodies: Cerebral cortex Piriform, layer II, dorsal [5, 6]: 15.7 ± 2.9
- number of neuronal cell bodies: Cerebral cortex Piriform, layer II, ventral [5, 6]: 7.2 ± 3.8
- number of neuronal cell bodies: Cerebral cortex Piriform, layer III [5, 6]: 1.8 ± 1.8
- number of neuronal cell bodies: Hippocampus CA1 area [5, 6]: 39.3 ± 44**°°
- number of neuronal cell bodies: Hippocampus CA3 area [5, 6]: 35.7 ± 1.8
- number of neuronal cell bodies: Hippocampus Hilus [5, 6]: 33.0 ± 3.2
- number of neuronal cell bodies: Thalamus Central medial [5, 6]: 75.6 ± 7.7
